In ChEMBL document CHEMBL1201862, “PubChem BioAssay data set” (2004):
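96-well plates; 48 h exposure; 5 concentrations. Endpoints by linear interpolation between flanking doses. Not reached: highest tested concentration assigned. GI50 is the concentration that inhibits growth by half.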 Activity calls are given as the source filed them. No stated cut-off is given here; in the data, active = GI50 up to about 1.1 µM and inactive = higher.

Experiments:
Test in all cases: DTP human tumour cell line panel, 48 h
[1] = test system: OVCAR-3
[2] = test system: K562
[3] = test system: TK-10
[4] = test system: SK-MEL-2
[5] = test system: IGROV-1
[6] = test system: ACHN
[7] = test system: A549
[8] = test system: OVCAR-4
[9] = test system: MOLT-4
[10] = test system: NCI-H23
[11] = test system: SNB-19
[12] = test system: HOP-92
[13] = test system: HOP-62
[14] = test system: KM12
[15] = test system: SF-295
[16] = test system: RXF 393

SMILES	GI50 [1]	GI50 [2]	GI50 [3]	GI50 [4]	GI50 [5]	GI50 [6]	GI50 [7]	GI50 [8]	GI50 [9]	GI50 [10]	GI50 [11]	GI50 [12]	GI50 [13]	GI50 [14]	GI50 [15]	GI50 [16]
[N-]=[N+]=NC1(Cc2ccccc2)C(=O)Nc2ccccc2C1=O (stereo not given)	91.6 µM (inactive)	> 100 µM (inactive)	> 100 µM (inactive)	> 100 µM (inactive)	88.7 µM (inactive)	> 100 µM (inactive)	> 100 µM (inactive)	> 100 µM (inactive)	> 100 µM (inactive)	> 100 µM (inactive)	> 100 µM (inactive)	> 100 µM (inactive)	> 100 µM (inactive)	> 100 µM (inactive)	> 100 µM (inactive)	–
COc1ccc(/C=C/C(=O)c2cc(C(=O)O)c(OC)cc2OC)cc1OC	–	> 100 µM (inactive)	–	–	> 100 µM (inactive)	> 100 µM (inactive)	> 100 µM (inactive)	> 100 µM (inactive)	> 100 µM (inactive)	> 100 µM (inactive)	> 100 µM (inactive)	> 100 µM (inactive)	> 100 µM (inactive)	> 100 µM (inactive)	> 100 µM (inactive)	–
CC(C)(C)c1cc(C2c3cc4c(cc3OC(O)(CO)C2C(=O)O)OCO4)cc(C(C)(C)C)c1O.CC(C)(C)c1cc(C2c3cc4c(cc3OC3(O)COC(=O)C23)OCO4)cc(C(C)(C)C)c1O (stereo not given)	5.36 µM (inactive)	7.67 µM (inactive)	22.7 µM (inactive)	–	16.4 µM (inactive)	14.8 µM (inactive)	18.7 µM (inactive)	11.7 µM (inactive)	3.52 µM (inactive)	9.55 µM (inactive)	12.9 µM (inactive)	9.82 µM (inactive)	32.2 µM (inactive)	–	15.7 µM (inactive)	11.9 µM (inactive)
O=[PH](O)c1cc2ccccc2c2ccccc12	> 100 µM (inactive)	> 100 µM (inactive)	> 100 µM (inactive)	–	> 100 µM (inactive)	–	> 100 µM (inactive)	> 100 µM (inactive)	> 100 µM (inactive)	> 100 µM (inactive)	> 100 µM (inactive)	–	> 100 µM (inactive)	> 100 µM (inactive)	> 100 µM (inactive)	> 100 µM (inactive)
OC(CC1SCCCS1)c1ccccc1 (stereo not given)	> 100 µM (inactive)	> 100 µM (inactive)	> 100 µM (inactive)	> 100 µM (inactive)	> 100 µM (inactive)	> 100 µM (inactive)	> 100 µM (inactive)	> 100 µM (inactive)	> 100 µM (inactive)	> 100 µM (inactive)	> 100 µM (inactive)	–	> 100 µM (inactive)	> 100 µM (inactive)	> 100 µM (inactive)	> 100 µM (inactive)
O=C1C(=O)N(C(=O)c2ccc(Cl)c(Cl)c2)c2ccc(Cl)cc21	56.6 µM (inactive)	59.3 µM (inactive)	> 100 µM (inactive)	–	> 100 µM (inactive)	> 100 µM (inactive)	> 100 µM (inactive)	64.6 µM (inactive)	43.9 µM (inactive)	> 100 µM (inactive)	> 100 µM (inactive)	–	–	> 100 µM (inactive)	> 100 µM (inactive)	> 100 µM (inactive)
COc1cc(Nc2nc3cc(C(F)(F)F)ccc3nc2C)cc(OC)c1OC	16.1 µM (inactive)	5.52 µM (inactive)	10.7 µM (inactive)	11 µM (inactive)	13.6 µM (inactive)	8.11 µM (inactive)	> 10 µM (inactive)	16.3 µM (inactive)	6.95 µM (inactive)	10.7 µM (inactive)	–	0.246 µM (active)	16.7 µM (inactive)	6.32 µM (inactive)	1.97 µM (inactive)	5.46 µM (inactive)
C/C(=N\NC(N)=S)c1cc(C)c(C)cc1C	24.4 µM (inactive)	40.3 µM (inactive)	89.5 µM (inactive)	34.6 µM (inactive)	31 µM (inactive)	> 100 µM (inactive)	45.2 µM (inactive)	30.9 µM (inactive)	20.2 µM (inactive)	41.7 µM (inactive)	–	> 100 µM (inactive)	> 100 µM (inactive)	25.5 µM (inactive)	47 µM (inactive)	29 µM (inactive)
O=[N+]([O-])c1ccc(/C(Cl)=C/c2ccc(/C=C(\Cl)c3ccc([N+](=O)[O-])cc3[N+](=O)[O-])cc2)c([N+](=O)[O-])c1	0.729 µM (active)	–	> 100 µM (inactive)	> 100 µM (inactive)	> 100 µM (inactive)	> 100 µM (inactive)	> 100 µM (inactive)	> 100 µM (inactive)	> 100 µM (inactive)	> 100 µM (inactive)	–	> 100 µM (inactive)	> 100 µM (inactive)	–	> 100 µM (inactive)	> 100 µM (inactive)
CCCCCNC(=O)CCCCCCCCCCCNC(=O)CCCCCCCCCCN1C=CC(=CC=C2C=CC(=O)C=C2)C=C1	41.3 µM (inactive)	21.2 µM (inactive)	> 10 µM (inactive)	–	28.4 µM (inactive)	> 100 µM (inactive)	> 100 µM (inactive)	65 µM (inactive)	29 µM (inactive)	28.2 µM (inactive)	34.8 µM (inactive)	14.7 µM (inactive)	64.6 µM (inactive)	37.4 µM (inactive)	71.4 µM (inactive)	> 100 µM (inactive)
CC(=O)OC(CC1(C)C(C)CCC23COC(=O)C2=CCCC31)c1ccoc1 (stereo not given)	20.8 µM (inactive)	23.4 µM (inactive)	–	23.4 µM (inactive)	–	28.8 µM (inactive)	31.6 µM (inactive)	28.1 µM (inactive)	19.5 µM (inactive)	19 µM (inactive)	25.4 µM (inactive)	26.2 µM (inactive)	27.5 µM (inactive)	26.2 µM (inactive)	28.7 µM (inactive)	14.2 µM (inactive)
Cc1oc2c(C)c3oc(=O)cc(C)c3cc2c1CN	61.4 µM (inactive)	37.6 µM (inactive)	27.8 µM (inactive)	46.1 µM (inactive)	–	27.7 µM (inactive)	40.3 µM (inactive)	40.6 µM (inactive)	24.7 µM (inactive)	45.8 µM (inactive)	41.5 µM (inactive)	–	38.8 µM (inactive)	49.5 µM (inactive)	38 µM (inactive)	15.9 µM (inactive)
COc1cc(-c2ccccc2)c(OC)cc1CCl	> 100 µM (inactive)	> 100 µM (inactive)	> 100 µM (inactive)	> 100 µM (inactive)	> 100 µM (inactive)	> 100 µM (inactive)	> 100 µM (inactive)	> 100 µM (inactive)	> 100 µM (inactive)	> 100 µM (inactive)	> 100 µM (inactive)	–	> 100 µM (inactive)	> 100 µM (inactive)	> 100 µM (inactive)	> 100 µM (inactive)
C#C[C@]1(O)CC[C@H]2[C@@H]3CCc4cc(O)ccc4[C@H]3CC[C@@]21C [ETHINYL ESTRADIOL]	28 µM (inactive)	–	43.9 µM (inactive)	24.5 µM (inactive)	55.5 µM (inactive)	78.7 µM (inactive)	29.1 µM (inactive)	–	18.6 µM (inactive)	23.7 µM (inactive)	68.5 µM (inactive)	22.9 µM (inactive)	–	13.6 µM (inactive)	19 µM (inactive)	29 µM (inactive)
C=C1C2CC(OC(C)=O)C3(C)C(c4ccoc4)OC(=O)[C@@H](O)[C@]13OC1C[C@H](OC(C)=O)C(C)(C)[C@H](CC(=O)OC)[C@]12C (stereo not given in full)	> 100 µM (inactive)	> 100 µM (inactive)	> 100 µM (inactive)	> 100 µM (inactive)	> 100 µM (inactive)	> 100 µM (inactive)	> 100 µM (inactive)	93.5 µM (inactive)	70.6 µM (inactive)	> 100 µM (inactive)	> 100 µM (inactive)	30.3 µM (inactive)	–	> 100 µM (inactive)	> 100 µM (inactive)	–
Cc1ccccc1NC(=O)c1ccc([N+](=O)[O-])cc1	53.5 µM (inactive)	93.5 µM (inactive)	97.3 µM (inactive)	–	> 100 µM (inactive)	> 100 µM (inactive)	> 100 µM (inactive)	> 100 µM (inactive)	> 100 µM (inactive)	> 100 µM (inactive)	> 100 µM (inactive)	> 100 µM (inactive)	> 100 µM (inactive)	67.5 µM (inactive)	> 100 µM (inactive)	15.8 µM (inactive)
O=C(O)Cc1ccccc1CCc1ccccc1Cl	53.2 µM (inactive)	> 100 µM (inactive)	> 100 µM (inactive)	30.8 µM (inactive)	> 100 µM (inactive)	–	> 100 µM (inactive)	> 100 µM (inactive)	> 100 µM (inactive)	> 100 µM (inactive)	> 100 µM (inactive)	> 100 µM (inactive)	–	> 100 µM (inactive)	> 100 µM (inactive)	> 100 µM (inactive)
O=C(Nc1ccc([N+](=O)[O-])cc1C(=O)O)c1ccc([N+](=O)[O-])cc1	59.6 µM (inactive)	15.1 µM (inactive)	70.3 µM (inactive)	19.2 µM (inactive)	29.2 µM (inactive)	25.3 µM (inactive)	59.6 µM (inactive)	27.4 µM (inactive)	14.8 µM (inactive)	–	36.6 µM (inactive)	10.8 µM (inactive)	> 100 µM (inactive)	24.8 µM (inactive)	> 100 µM (inactive)	–
CCN(CC)CC1CCCCN1CC(=O)N1CC(C)C(=O)Nc2ccccc21 (stereo not given)	> 100 µM (inactive)	> 100 µM (inactive)	–	–	> 100 µM (inactive)	> 100 µM (inactive)	> 100 µM (inactive)	> 100 µM (inactive)	> 100 µM (inactive)	> 100 µM (inactive)	> 100 µM (inactive)	> 100 µM (inactive)	> 100 µM (inactive)	–	> 100 µM (inactive)	–
